Experiment [1] addresses T1, human nAChRα6-α3 chimera, in addition to β2 and β3^V273S subunits (Homo sapiens, UniProt P32297+Q15825).
T1 construct: expressed in transfected cells
As to the kind of experiment: fluorescence-based calcium assay: inhibition of nicotine stimulated nAChRα6 activity (FLIPR). The note with it: HEK cell line stably expressing the receptor; 10 min pre-incubation, nicotine EC80; 10-point curve, duplicate wells; read-out: IC50. An outline of the steps: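 HEK cells stably expressing the human α6-α3 chimera with β2 and β3^V273S were loaded with calcium dye at 30° C. Compounds were pre-incubated for 10 min before nicotine at EC80, and the fluorescence change was read on a FLIPR. Ten-point half-log concentration-response, duplicate wells.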

Experiment [2] has as its system tremulous jaw movements induced by tacrine in male C57BL/6J mice. In words: tacrine-induced tremulous jaw movements, mice. In kind it is in vivo. The following applies: mouse; 10 mg/kg p.o.; tacrine 5 mg/kg i.p.; n=10/group; tremulous jaw movements relative to vehicle (100%). The method, then:
(§1) Resting tremor is one of the classic symptoms of Parkinson's disease. These characteristic tremors can be modelled pharmacologically in preclinical models using cholinomimetics such as the acetylcholine esterase inhibitor, tacrine (5 mg/kg, i.p.) (Salamone et al, Prog Neurobiol 56: 591-611 1998) to induce tremulous jaw movement behaviours. These tremulous jaw movements are thought to arise from an imbalance between cholinergic and dopaminergic neurotransmission and are thought to mimic the imbalances in neurotransmission resulting from the dopamine loss seen in Parkinson's disease (Aosaki et al, Geriatr Gerontol Int 10: s148-s157 2010). These tremors can be reversed by agents increasing the dopamine tone, such as dopamine agonists (Salamone et al, Behav Brain Res 156: 173-179 2005).
The objective of these studies was to evaluate the effects of oral administration of Example Compounds on tremulous jaw movements induced by tacrine in male C57BL/6J mice or Sprague-Dawley rats. Animals were administered vehicle (0.5% methylcellulose, p.o.) or Example Compound (across a range of doses; 10 mg/kg, p.o. data shown) 15 to 60 minutes prior to behavioural testing (n=10/group). Tacrine (5 mg/kg, i.p.) was administered to all animals immediately before behavioural assessment commenced. For each animal the latency to the first tremulous jaw movement and the total duration of the tremulous jaw movements post tacrine administration were recorded.
illustrative data shown is percentage attenuation of tacrine-induced tremulous jaw movements relative to vehicle (100%). Each compound shown was tested at 10 mg/kg p.o.
(§2) Statistical significance was assessed using an unpaired student's t-test vs vehicle * p<0.05, ***p<0.001.

For experiment [3], the system named is tremulous jaw movements induced by tacrine in Sprague-Dawley rats. In words: tacrine-induced tremulous jaw movements, rats. Format: in vivo. The following applies: rat; 10 mg/kg p.o.; tacrine 5 mg/kg i.p.; n=10/group; tremulous jaw movements relative to vehicle (100%). The method, then:
as §1
The objective of these studies was to evaluate the effects of oral administration of Example Compounds on tremulous jaw movements induced by tacrine in male C57BL/6J mice or Sprague-Dawley rats. […] For each animal the latency to the first tremulous jaw movement and the total duration of the tremulous jaw movements post tacrine administration were recorded. […]
as §2

Marks after values point to notes of the source that are not given here.

Results on five molecules are retold here after patent US20240059677A1, “SUBSTITUTED PYRIMIDINE DERIVATIVES AS NICOTINIC ACETYLCHOLINESTERASE RECEPTOR ALPHA 6 MODULATOR” (priority 2020, published 2024).

T1 sequence (Q05901 25-458 V273S): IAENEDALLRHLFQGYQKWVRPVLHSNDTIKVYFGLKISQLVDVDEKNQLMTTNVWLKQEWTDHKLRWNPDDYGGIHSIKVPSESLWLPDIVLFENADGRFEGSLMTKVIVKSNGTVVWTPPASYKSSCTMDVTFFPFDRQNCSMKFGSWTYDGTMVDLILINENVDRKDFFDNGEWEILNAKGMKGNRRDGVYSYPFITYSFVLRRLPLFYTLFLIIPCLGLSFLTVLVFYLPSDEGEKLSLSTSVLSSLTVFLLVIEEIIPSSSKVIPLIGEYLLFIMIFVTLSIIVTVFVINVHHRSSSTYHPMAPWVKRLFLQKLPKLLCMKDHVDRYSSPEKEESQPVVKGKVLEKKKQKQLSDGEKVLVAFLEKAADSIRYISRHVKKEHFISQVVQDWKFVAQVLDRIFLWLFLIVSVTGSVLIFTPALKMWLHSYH
T1 sequence (P17787 26-502, stated change not applied, further chain): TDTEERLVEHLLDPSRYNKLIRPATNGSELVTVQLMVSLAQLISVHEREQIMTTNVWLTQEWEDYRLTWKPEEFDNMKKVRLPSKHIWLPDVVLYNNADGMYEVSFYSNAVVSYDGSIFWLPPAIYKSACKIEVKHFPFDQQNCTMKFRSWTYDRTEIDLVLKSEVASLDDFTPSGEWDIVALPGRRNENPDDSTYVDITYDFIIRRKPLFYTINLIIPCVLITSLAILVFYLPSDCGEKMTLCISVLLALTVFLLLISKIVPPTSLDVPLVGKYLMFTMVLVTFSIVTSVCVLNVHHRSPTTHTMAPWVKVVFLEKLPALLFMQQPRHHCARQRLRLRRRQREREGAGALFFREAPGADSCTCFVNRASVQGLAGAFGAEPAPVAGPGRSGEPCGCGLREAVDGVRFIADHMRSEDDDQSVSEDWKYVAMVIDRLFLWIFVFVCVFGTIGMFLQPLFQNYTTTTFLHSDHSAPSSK
T1 sequence (Q15825+P32297 fused with the stated changes): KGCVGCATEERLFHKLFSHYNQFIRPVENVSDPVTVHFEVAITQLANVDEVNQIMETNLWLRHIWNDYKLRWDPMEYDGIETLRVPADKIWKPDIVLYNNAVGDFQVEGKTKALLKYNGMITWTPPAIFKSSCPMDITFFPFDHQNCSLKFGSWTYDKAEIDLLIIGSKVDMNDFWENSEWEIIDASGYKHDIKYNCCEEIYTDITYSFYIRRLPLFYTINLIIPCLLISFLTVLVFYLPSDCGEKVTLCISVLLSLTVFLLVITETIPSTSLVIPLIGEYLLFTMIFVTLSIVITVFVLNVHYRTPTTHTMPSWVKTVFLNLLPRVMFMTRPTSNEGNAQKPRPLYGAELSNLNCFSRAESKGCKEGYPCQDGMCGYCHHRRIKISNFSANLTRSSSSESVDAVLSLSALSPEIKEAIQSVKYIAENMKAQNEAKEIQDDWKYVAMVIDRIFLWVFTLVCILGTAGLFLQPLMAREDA

In the case of `CCN1CCC[C@H](Nc2ncc(-c3ccc(F)cc3F)c(C)n2)C1.O=C(O)/C=C/C(=O)O` (single isomer, unassigned) [Example 78b], the half-maximal inhibitory concentration (IC50) in experiment [1] stood at 60 nM. Also, the “% Decrease from vehicle or percentage relative to vehicle (100%), (mean ± SEM)” value in experiment [2] was 23.8 ± 7.7*** %.
For `Cc1nc(NC[C@H]2CCCN2C)ncc1-c1ccc(F)cc1F` [Example 24b, (R)-5-(2,4-difluorophenyl)-4-methyl-N-((1-methylpyrrolidin-2-yl)methyl) pyrimidin-2-amine] the same measures were 5 nM and 23.9 ± 3.8*** %.
`CC(C)N1CCC(Nc2ncc(-c3ccc(F)cc3F)c(C#N)n2)CC1` [Example 65, 5-(2,4-difluorophenyl)-2-((1-isopropylpiperidin-4-yl)amino)pyrimidine-4-carbonitrile]: the IC50 in experiment [1] amounted to 84 nM. For the same molecule, the “% Decrease from vehicle or percentage relative to vehicle (100%), (mean ± SEM)” value in experiment [3] was 30.0 ± 12.8* %.
Take `Cc1nc(NC[C@@H]2CCCN2)ncc1-c1ccc(F)cc1F` [Example 94b, (S)-5-(2,4-difluorophenyl)-4-methyl-N-(pyrrolidin-2-ylmethyl)pyrimidin-2-amine]: in experiment [1], the IC50 worked out at 5 nM. For the same molecule, the “% Decrease from vehicle or percentage relative to vehicle (100%), (mean ± SEM)” value in experiment [2] came to 79.9 ± 7.2%.
Turning to `Cc1nc(NC(=O)[C@@H]2CCCN2C)ncc1-c1ccc(C(F)(F)F)cc1F` [Example 140, (S)—N-(5-(2-fluoro-4-(trifluoromethyl)phenyl)-4-methyl-pyrimidin-2-yl)-1-methylpyrrolidine-2-carboxamide], the IC50 in experiment [1] is 79 nM.
